One test concerns the target T1, B-Raf kinase (Homo sapiens, UniProt P15056).
T1 construct: purchased Upstate Biotechnology
The experiment in a line: B-Raf kinase assay ([33P] incorporation into MEK1 K97R). Type of test: biochemical. The conditions noted are these: recombinant B-Raf, 8 μM ATP, 30 min, 30° C.; read-out: IC50 ranking against B-Raf kinase. The procedure, abridged:
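Recombinant B-Raf (5 ng) phosphorylating MEK1 K97R (500 ng) with 8 μM ATP plus [33P]ATP in Tris/HCl pH 7.5 buffer, 30 min at 30° C. Filter-captured 33P counted by scintillation; IC50 from 3-fold serial dilutions run in duplicate.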

The next test deals with T2, C-Raf kinase (Homo sapiens, UniProt P04049).
T2 construct: purchased Upstate Biotechnology
T2 sequence (P04049 whole entry): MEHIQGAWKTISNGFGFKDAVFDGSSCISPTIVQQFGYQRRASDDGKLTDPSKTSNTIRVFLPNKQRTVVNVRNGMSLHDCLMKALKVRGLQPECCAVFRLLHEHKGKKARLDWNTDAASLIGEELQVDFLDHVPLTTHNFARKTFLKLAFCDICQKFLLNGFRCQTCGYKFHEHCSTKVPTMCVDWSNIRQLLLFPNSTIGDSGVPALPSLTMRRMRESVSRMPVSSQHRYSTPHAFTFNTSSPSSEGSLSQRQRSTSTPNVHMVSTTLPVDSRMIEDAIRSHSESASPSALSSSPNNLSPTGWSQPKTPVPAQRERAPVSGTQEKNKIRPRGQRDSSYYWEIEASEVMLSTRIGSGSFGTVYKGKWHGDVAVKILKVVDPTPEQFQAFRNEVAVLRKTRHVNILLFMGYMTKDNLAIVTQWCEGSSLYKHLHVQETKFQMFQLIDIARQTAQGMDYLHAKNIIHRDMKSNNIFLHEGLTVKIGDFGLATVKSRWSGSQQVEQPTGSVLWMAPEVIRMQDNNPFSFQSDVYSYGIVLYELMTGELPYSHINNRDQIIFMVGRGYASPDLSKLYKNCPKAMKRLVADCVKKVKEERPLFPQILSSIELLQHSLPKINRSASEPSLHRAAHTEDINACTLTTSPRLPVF
Put plainly: C-Raf kinase assay ([33P] incorporation into MEK1 K97R). Format: biochemical. The conditions noted are these: recombinant C-Raf, 8 μM ATP, 30 min, 30° C.; read-out: IC50 ranking against C-Raf kinase. A digest of the protocol:
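Recombinant C-Raf (2 ng) phosphorylating MEK1(K97R) with 8 μM ATP plus [33P]ATP, pH 7.5 Tris buffer, 30 min at 30° C. Acid-stopped, filter-captured 33P counted by scintillation; IC50 from 3-fold dilution series run in duplicate.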

In test [1] the test system is B-Raf^V600E mutant A375 melanoma cell. Put plainly: Cell proliferation assay (CELLTITER 96), A375. Format: cell-based. The conditions noted are these: Homo sapiens, A-375; A375, 72 hours; read-out: Cytotoxicity (IC50 Ranking) A375 (B-Raf^V600E). A digest of the protocol: (§1)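 Cells seeded overnight (A375 and COLO205 at 2000, SK-MEL-2 at 4000 cells/well), then exposed to increasing compound concentrations for 72 h at 37° C. Viability read by MTS absorbance at 490 nm after 4 h reagent; IC50 from curve fit of percent growth inhibition versus concentration.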

Another test concerns the target T3, B-Raf^V600E kinase (Homo sapiens, UniProt P15056, V600E).
T3 construct: purchased Upstate Biotechnology
The experiment in a line: B-Raf V600E kinase assay ([33P] incorporation into MEK1 K97R). Type of test: biochemical. The conditions noted are these: recombinant B-Raf^V600E, 8 μM ATP, 30 min, 30° C.; read-out: IC50 ranking against B-Raf^V600E kinase. The procedure, abridged:
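Recombinant B-Raf V600E (5 ng) phosphorylating MEK1 K97R (500 ng) with 8 μM ATP plus [33P]ATP in Tris pH 7.5 buffer, 30 min at 30 °C. Filter-bound 33P counted by scintillation; IC50 from 3-fold dilution series in duplicate.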

The subject of test [2] is SK-MEL-2 melanoma cell with wild type B-Raf (B-Raf^wt) and NRAS^Q61R mutation. The experiment in a line: Cell proliferation assay (CELLTITER 96), SK-MEL-2. Format: cell-based. The conditions noted are these: Homo sapiens, SK-MEL-2, 72 hours, read-out: Cytotoxicity (IC50 Ranking) SK-MEL-2 (NRAS^Q61R, B-Raf^wt). The procedure, abridged: as §1
Test [3] has as its system B-Raf^V600E mutant COLO205 colon cancer cell. Put plainly: Cell proliferation assay (CELLTITER 96), COLO205. Format: cell-based. The conditions noted are these: Homo sapiens, COLO 205; COLO205, 72 hours; read-out: Cytotoxicity (IC50 Ranking) COLO205 (B-Raf^V600E). A digest of the protocol:
as §1

Read-outs that look alike come from different tables or passages of the source.

T1 sequence (P15056 whole entry): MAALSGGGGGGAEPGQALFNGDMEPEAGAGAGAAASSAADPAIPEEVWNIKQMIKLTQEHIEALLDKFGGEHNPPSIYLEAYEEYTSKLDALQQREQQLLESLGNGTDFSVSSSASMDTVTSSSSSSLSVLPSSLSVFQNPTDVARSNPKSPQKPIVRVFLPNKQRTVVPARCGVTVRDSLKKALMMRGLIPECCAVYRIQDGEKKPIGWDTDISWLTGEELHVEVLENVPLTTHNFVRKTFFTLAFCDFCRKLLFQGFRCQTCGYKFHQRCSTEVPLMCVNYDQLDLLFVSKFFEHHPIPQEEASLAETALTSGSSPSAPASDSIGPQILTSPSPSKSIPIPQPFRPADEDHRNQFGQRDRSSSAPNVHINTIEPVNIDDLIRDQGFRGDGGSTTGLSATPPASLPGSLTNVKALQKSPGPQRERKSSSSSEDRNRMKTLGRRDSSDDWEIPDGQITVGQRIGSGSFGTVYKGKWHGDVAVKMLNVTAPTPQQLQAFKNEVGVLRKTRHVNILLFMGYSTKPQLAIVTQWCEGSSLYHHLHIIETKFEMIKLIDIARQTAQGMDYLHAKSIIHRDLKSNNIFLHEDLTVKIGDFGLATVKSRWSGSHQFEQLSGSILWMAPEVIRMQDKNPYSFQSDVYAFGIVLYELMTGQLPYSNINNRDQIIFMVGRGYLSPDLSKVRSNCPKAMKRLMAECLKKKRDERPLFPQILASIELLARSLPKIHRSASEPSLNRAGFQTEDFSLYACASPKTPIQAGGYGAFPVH
T3 sequence (P15056 whole entry V600E): as the sequence (P15056 whole entry) above, with V600E counted along it

What is called IC50 is the concentration that gives 50% inhibition. In the case of `CCOc1cnc2ccc(Nc3c(F)ccc(NS(=O)(=O)CCCF)c3F)c(C#N)c2n1` [compound 34, N-(3-(5-cyano-3-ethoxyquinoxalin-6-ylamino)-2,4-difluorophenyl)-3-fluoropropane-1-sulfonamide], the IC50 on B-Raf kinase was below 300 nM; on C-Raf kinase, below 300 nM; in test [1], below 300 nM; at B-Raf^V600E kinase, below 300 nM; in test [2] (given as bound), above 10 µM; in test [3] it was below 300 nM.

With `CCCS(=O)(=O)Nc1ccc(F)c(Nc2ccc3ncc(Nc4ccccc4F)nc3c2)c1F` [compound 11, N1-(2,4-difluoro-3-{[3-(2-fluoroanilino)-6-quinoxalinyl]amino}phenyl)-1-propanesulfonamide], the half-maximal inhibitory concentration (IC50) at B-Raf kinase was below 300 nM; at C-Raf kinase it was below 300 nM; in test [1], 300 to 1000 nM; at B-Raf^V600E kinase, below 300 nM; in test [2] (given as bound) it was above 10 µM; in test [3], 1000 to 10000 nM.

Turning to `CCCS(=O)(=O)Nc1cccc(Nc2ccc3ncc(OC)nc3c2C#N)c1C#N` [compound 50, N-(2-cyano-3-(5-cyano-3-methoxyquinoxalin-6-ylamino)phenyl)propane-1-sulfonamide], the IC50 on B-Raf kinase was below 300 nM; on C-Raf kinase, below 300 nM; in test [1], below 300 nM; on B-Raf^V600E kinase, below 300 nM; in test [2] (given as bound), above 10 µM; in test [3], below 300 nM.

For the compound `CCCS(=O)(=O)Nc1ccc(F)c(Nc2ccc3ncc(N4CCOCC4)nc3c2C#N)c1F` [compound 19, N-(3-(5-cyano-3-morpholinoquinoxalin-6-ylamino)-2,4-difluorophenyl)propane-1-sulfonamide], the 50% inhibitory concentration (IC50) was below 300 nM on B-Raf kinase; below 300 nM on C-Raf kinase; below 300 nM in test [1]; below 300 nM on B-Raf^V600E kinase; above 10 µM in test [2] (given as bound); below 300 nM in test [3].

As for `CCCS(=O)(=O)Nc1ccc(F)c(Nc2ccc3ncc(Nc4cccnc4)nc3c2)c1F` [compound 12, N1-(2,4-difluoro-3-{[3-(3-pyridylamino)-6-quinoxalinyl]amino}phenyl)-1-propanesulfonamide], the concentration for half-maximal inhibition (IC50) was below 300 nM on B-Raf kinase; below 300 nM on C-Raf kinase; 1000 to 10000 nM in test [1]; below 300 nM at B-Raf^V600E kinase; above 10 µM in test [2] (given as bound); 300 to 1000 nM in test [3].

Regarding `CCCS(=O)(=O)Nc1cccc(Nc2ccc3ncc(OC)nc3c2C#N)c1C` [compound 44, N-(3-(5-cyano-3-methoxyquinoxalin-6-ylamino)-2-methylphenyl)propane-1-sulfonamide], the IC50 on B-Raf kinase is below 300 nM; at C-Raf kinase, below 300 nM; in test [1] it was 300 to 1000 nM; on B-Raf^V600E kinase it was 300 to 1000 nM; in test [2] (given as bound) it was above 10 µM; in test [3], 300 to 1000 nM.

Take `CCCS(=O)(=O)Nc1ccc(F)c(Nc2ccc3ncc(OC)nc3c2C(=O)OC)c1F` [compound 31, methyl 6-(2,6-difluoro-3-(propylsulfonamido)phenylamino)-3-methoxyquinoxaline-5-carboxylate]: the IC50 at B-Raf kinase was below 300 nM; on C-Raf kinase it was below 300 nM; in test [1], 300 to 1000 nM; at B-Raf^V600E kinase, below 300 nM; in test [2] (given as bound), above 10 µM; in test [3] it was 300 to 1000 nM.

As for `COc1cnc2ccc(Nc3c(F)ccc(NS(C)(=O)=O)c3F)c([N+](=O)[O-])c2n1` [compound 14, N-{2,4-difluoro-3-[(3-methoxy-5-nitro-6-quinoxalinyl)amino]phenyl}methanesulfonamide], the IC50 on B-Raf kinase is 300 to 1000 nM; on C-Raf kinase, 300 to 1000 nM; in test [1], 1000 to 10000 nM; at B-Raf^V600E kinase, 300 to 1000 nM; in test [2] (given as bound), above 10 µM; in test [3], 1000 to 10000 nM.

On to `CCCS(=O)(=O)Nc1ccc(F)c(Nc2ccc3ncc(N4CCOCC4)nc3c2C#N)c1` [compound 23, N-(3-(5-cyano-3-morpholinoquinoxalin-6-ylamino)-4-fluorophenyl)propane-1-sulfonamide], for which the IC50 on B-Raf kinase was 300 to 1000 nM; on C-Raf kinase, 1000 to 10000 nM; in test [1], below 300 nM; on B-Raf^V600E kinase, 300 to 1000 nM; in test [2] (given as bound), above 10 µM; in test [3], below 300 nM.

As for `CCCS(=O)(=O)Nc1ccc(F)c(Nc2ccc3ncc(OC)nc3c2C=O)c1F` [compound 29, N-(2,4-difluoro-3-(5-formyl-3-methoxyquinoxalin-6-ylamino)phenyl)propane-1-sulfonamide], the IC50 was below 300 nM at B-Raf kinase; below 300 nM on C-Raf kinase; below 300 nM in test [1]; below 300 nM at B-Raf^V600E kinase; above 10 µM in test [2] (given as bound); below 300 nM in test [3].

`N#Cc1c(Nc2c(F)ccc(NS(=O)(=O)CCCF)c2F)ccc2ncc(N3CCOCC3)nc12` [compound 33, N-(3-(5-cyano-3-morpholinoquinoxalin-6-ylamino)-2,4-difluorophenyl)-3-fluoropropane-1-sulfonamide]: the 50% inhibitory concentration (IC50) at B-Raf kinase was below 300 nM; at C-Raf kinase it was below 300 nM; in test [1], below 300 nM; at B-Raf^V600E kinase, below 300 nM; in test [2] (given as class symbol) it was 1 to 10 µM; in test [3] it was below 300 nM.

In the case of `CCCS(=O)(=O)Nc1cc(Nc2ccc3ncc(OC)nc3c2C#N)ccc1F` [compound 22, N-(5-(5-cyano-3-methoxyquinoxalin-6-ylamino)-2-fluorophenyl)propane-1-sulfonamide], the IC50 on B-Raf kinase is below 300 nM; on C-Raf kinase, below 300 nM; in test [1], below 300 nM; on B-Raf^V600E kinase, below 300 nM; in test [2] (given as bound), above 10 µM; in test [3], below 300 nM.

Regarding `CCCS(=O)(=O)Nc1ccc(F)c(Nc2ccc3ncc(N(C)C)nc3c2C#N)c1` [compound 28, N-(3-(5-cyano-3-(dimethylamino)quinoxalin-6-ylamino)-4-fluorophenyl)propane-1-sulfonamide], the half-inhibitory concentration (IC50) on B-Raf kinase is 300 to 1000 nM; on C-Raf kinase it was below 300 nM; in test [1], 300 to 1000 nM; on B-Raf^V600E kinase it was 300 to 1000 nM; in test [2] (given as bound), above 10 µM; in test [3], below 300 nM.

With `CCCS(=O)(=O)Nc1ccc(C)c(Nc2ccc3ncc(OC)nc3c2C#N)c1` [compound 40, N-(3-(5-cyano-3-methoxyquinoxalin-6-ylamino)-4-methylphenyl)propane-1-sulfonamide], the IC50 is 300 to 1000 nM on B-Raf kinase; 300 to 1000 nM on C-Raf kinase; 1000 to 10000 nM in test [1]; 300 to 1000 nM on B-Raf^V600E kinase; above 10 µM in test [2] (given as bound); 1000 to 10000 nM in test [3].

For `CCCS(=O)(=O)Nc1ccc(F)c(Nc2ccc3ncc(OCCN4CCOCC4)nc3c2[N+](=O)[O-])c1F` [compound 6, N1-(2,4-difluoro-3-{[3-(2-morpholinoethoxy)-5-nitro-6-quinoxalinyl]amino}phenyl)-1-propanesulfonamide], the IC50 at B-Raf kinase was below 300 nM; at C-Raf kinase, below 300 nM; in test [1], below 300 nM; on B-Raf^V600E kinase, below 300 nM; in test [2] (given as bound), above 10 µM; in test [3], below 300 nM.

As for `CCCS(=O)(=O)Nc1ccc(F)c(Nc2ccc3ncc(OCCN4CCOCC4)nc3c2C#N)c1F` [compound 16, N1-(3-{[5-cyano-3-(2-morpholinoethoxy)-6-quinoxalinyl]amino)-2,4-difluorophenyl)-1-propanesulfonamide], the IC50 was below 300 nM on B-Raf kinase; below 300 nM on C-Raf kinase; below 300 nM in test [1]; below 300 nM on B-Raf^V600E kinase; above 10 µM in test [2] (given as bound); below 300 nM in test [3].

In the case of `COc1cnc2ccc(Nc3c(F)ccc(NS(=O)(=O)c4ccccc4)c3Cl)c(C#N)c2n1` [compound 47, N-(2-chloro-3-(5-cyano-3-methoxyquinoxalin-6-ylamino)-4-fluorophenyl)benzenesulfonamide], the 50% inhibitory concentration (IC50) is below 300 nM at B-Raf kinase; below 300 nM on C-Raf kinase; below 300 nM in test [1]; below 300 nM on B-Raf^V600E kinase; above 10 µM in test [2] (given as bound); below 300 nM in test [3].

For the origin of these results see patent publication US10745360B2, “Quinoxaline compounds, method for preparing the same and use thereof” (Development Center for Biotechnology, priority 2014, dated 2020).
